Read-outs that look alike come from different tables or passages of the source.
System: NO production
Assay: NO production-inhibiting effect in RAW264.7 cells (nitrite ion, DAN fluorescence)
Type: cell-based, Mouse
Conditions: RAW264.7 cells stimulated with LPS 5 ng/ml and interferon gamma 1 U/ml, nitrite ion in culture supernatant, Compounds 1 and 3: minimum and maximum of 7 and 9 tests, read-out: IC50 (μM), NO production inhibition
Method: Mouse macrophage cell line RAW264.7 was used as an iNOS-inducible cell and a test compound was examined for its % inhibition of NO production. The test compound was dissolved at 10 mM in N,N-dimethylformamide and diluted with an RPMI-1640 medium at the concentration of 0.1 mM. The concentration was further adjusted using the medium so that a final concentration ranging from 10 μM to 10 nM could be obtained by a 10-fold serial dilution and the test compound was added to a culture medium. On the day before the experiment, the cell was adjusted at 5×10^5/ml in an RPMI-1640 medium supplemented with 10% inactivated fetal calf serum and inoculated to a 96-well microplate at 1×10^5 cells/0.2 ml per well. After incubating at 37° C. under an atmosphere of 5% CO2/95% air overnight, the test compound adjusted as described above was added and then LPS and interferon gamma were added at the final concentrations of 5 ng/ml and 1 U/ml, respectively. After further incubating overnight, culture supernatants were examined for the concentration of nitrite ion (stable metabolite of NO) which was used as an index for the NO production. The nitrite ion concentration was determined by adding 25 μl of 20 μg/ml of 2,3-diaminonaphthalene (DAN) to 50 μl of the culture supernatant, followed by incubating at room temperature for 10 minutes, followed by adding 25 μl of 0.5 N NaOH, followed by determining a fluorescence at 450 nm (excitation wavelength: 365 nm). An IC50 represents the concentration of the test compound which inhibits 50% of the NO production.

Molecule	IC50 (Mus musculus)	IC50
CCOC(=O)C1=CCCCC1S(=O)(=O)Nc1ccc([N+](=O)[O-])cc1 (stereo not drawn) [Compound 5, ethyl 6-[N-(4-nitrophenyl)sulfamoyl]-1-cyclohexene-1-carboxylate]	3.7 µM	
CCOC(=O)C1=CCCCC1S(=O)(=O)Nc1ccc(F)cc1F (stereo not drawn) [Compound 20, d-ethyl 6-[N-(2,4-difluorophenyl)sulfamoyl]-1-cyclohexene-1-carboxylate]		0.005 µM
CCOC(=O)C1=CCCCC1S(=O)(=O)Nc1ccc(Cl)cc1 (stereo not drawn) [Compound 30, ethyl 6-[N-(4-chlorophenyl)sulfamoyl]-1-cyclohexene-1-carboxylate]	0.54 µM	
CCOC(=O)C1=CCCCC1S(=O)(=O)Nc1cccc(Cl)c1 (stereo not drawn) [Compound 37, ethyl 6-[N-(3-chlorophenyl)sulfamoyl]-1-cyclohexene-1-carboxylate]	0.13 µM	
CCOC(=O)C1=CCCCC1S(=O)(=O)Nc1ccccc1CC (stereo not drawn) [Compound 39, ethyl 6-[N-(2-ethylphenyl)sulfamoyl]-1-cyclohexene-1-carboxylate]	0.32 µM	
ethyl 7-[N-(2-chloro-4-fluorophenyl)sulfamoyl]-1-dycloheptene-1-carboxylate [Compound 65]		0.32 µM

— patent US7960416B2, “Stable emulsion composition” (Takeda Pharmaceutical Company Limited, priority 2001, dated 2011)
